Test results published in US10508118B2, “Pyrimidopyrrole compounds, method for preparing the same, pharmaceutical compositions comprising the same and uses thereof” (Xiamen University, priority 2015, dated 2019).
Like-named read-outs stand apart in the source and are kept apart here.

Key:
Format in all cases: cell-based
EML4-ALK-BaF3 = biological target: T1, EML4-ALK-BaF3 (Homo sapiens, UniProt Q9UM73); assay: Growth inhibition of EML4-ALK transformed BaF3 cells (MTS); settings: EML4-ALK-BaF3 cells, 48 hours, MTS
T1 construct: expressed in transfected cells; host or cells: Ba/F3 cells; the other entry of the earlier key: EML4 (Q9HC35, Echinoderm microtubule-associated protein-like 4)
Protocol: (§1) If compounds can inhibit the activity of ALK kinase or the activity of ALK signaling pathway, they can inhibit the growth of ALK transformed Ba/F3 cells. […] The broad-spectrum toxicity of compounds can be evaluated by determining the effect of the compounds on the growth of wild type BaF3 cells.
(§2) 1) Medium: DMEM (Dulbecco's modified eagle medium) or RPMI1640 (containing 10% fetal bovine serum, 100 μg/mL ampicillin, 100 μg/mL streptomycin).)
(§3) Reagents: MTS solution (2 mg/mL MTS (3-(4,5-dimethylthiazol-2-yl)-5-(3-carboxymethoxyphenyl)-2-(4-sulfophenyl)-2H-tetrazolium, inner salt); 100 μg/mL PES ([…])).
(§4) 3) Test of compound: Transformed Ba/F3 cells (EML4-ALK-BaF3, EML4-ALK(L1196M)-BaF3, NPM-ALK-BaF3) (2×10^4/well) were distributed into 96-well plates, with volume of cell sap of 90 μL, 10 μL of compounds in gradient concentration (the highest concentration 10 was μM, followed by 1/3 step by step dilution, a total of 8 concentrations were set, the system contained 0.1% DMSO (dimethyl sulfoxide)). The cell plates mixed with compounds were cultured in a cell incubator (37° C.; 5% CO2) for 48 hours, and the added 20 μL of MTS reaction solution, mixed and incubated in cell incubator (37° C.; 5% CO2) for 1-4 hours. The OD value at a wavelength of 490 nm was measured using eliasa (VARIOSKAN FLASH, Thermo). Three parallels were set up for each group, with a final concentration of 0.1% DMSO as negative control, and with medium without cells and compounds as blank control.
(§5) 4) Calculation of IC50 value: the semi inhibitory concentration of the compound acting on the cells was calculated using GradPad Prism 5 software according to the cell inhibitory rate measured.

EML4-ALK (L1196M)-BaF3 = biological target: T2, EML4-ALK (L1196M)-BaF3 (Homo sapiens, UniProt Q9UM73, L1196M); assay: Growth inhibition of EML4-ALK (L1196M) transformed BaF3 cells (MTS); settings: 48 hours
T2 construct: expressed in transfected cells; host or cells: Ba/F3 cells; the other entry of the earlier key: EML4 (Q9HC35, Echinoderm microtubule-associated protein-like 4)
Protocol: as §1, §2, §3, §4, §5

NPM-ALK-BaF3 = biological target: T3, NPM-ALK-BaF3 (Homo sapiens, UniProt Q9UM73); assay: Growth inhibition of NPM-ALK transformed BaF3 cells (MTS); settings: 48 hours
T3 construct: expressed in transfected cells; host or cells: Ba/F3 cells; the other entry of the earlier key: NPM1 (P06748, Nucleophosmin)
Protocol: (§6) The activity of compounds against ALK kinase was evaluated by inhibiting the growth of cellular ALK kinase EML4-ALK-BaF3, EML4-ALK (L1196M)-BaF3, NPM-ALK-BaF3, and wild type BaF3 (Proc. Natl. Acad. Sci. USA., 2006, 103, 3153-8.) The growth of cellular ALK kinase EML4-ALK-BaF3, EML4-ALK(L1196M)-BaF3, and NPM-ALK-BaF3 depends on their kinase activity. If compounds can inhibit the activity of ALK kinase or the activity of ALK signaling pathway, they can inhibit the growth of ALK transformed Ba/F3 cells. […] The broad-spectrum toxicity of compounds can be evaluated by determining the effect of the compounds on the growth of wild type BaF3 cells.
as §2, §3
as §4, with “control. The inhibition rate of cell growth was calculated by the following formula: Cell inhibition rate %=1−(OD experimental group−OD blank group)/(OD negative group−OD blank group)*100%” for “control.”
as §5

wild type BaF3 = assay: Growth inhibition of wild type BaF3 cells (broad-spectrum toxicity); settings: Mus musculus, BaF3, 48 h, MTS
Protocol: as §6, §2, §3
as §4, with “control. The inhibition rate of cell growth was calculated by the following formula: Cell inhibition rate %=1−(OD experimental group−OD blank group)/(OD negative group−OD blank group)*100%” for “control.”
as §5

[1] = Table 12, read-out: L1196M (IC50 nM)
[2] = Table 11, read-out: EML4-ALK (L1196M) (IC50 nM)

Compound | IC50 (EML4-ALK-BaF3; Table 12) [nM] | IC50 (EML4-ALK (L1196M)-BaF3; [1]) [nM] | IC50 (NPM-ALK-BaF3; Table 12) [nM] | IC50 (wild type BaF3; Table 12) [nM] | IC50 (EML4-ALK-BaF3; Table 11) [nM] | IC50 (EML4-ALK (L1196M)-BaF3; [2]) [nM] | IC50 (NPM-ALK-BaF3; Table 11) [nM] | IC50 (wild type BaF3; Table 11) [nM]
COc1cc(N2CCN(C)CC2)ccc1Nc1nc(Nc2ccccc2SC)c2c(ccn2C)n1 [IIA-1] | ~909 | ~2560 | 512 | 1550 | – | – | – | –
COc1cc(N2CCC(N3CCN(C)CC3)CC2)ccc1Nc1nc(Nc2ccccc2SC(C)C)c2c(ccn2C)n1 [IIB-2] | ~949 | ~853 | ~940 | 606 | – | – | – | –
COc1cc(C2CCN(C)CC2)c(C)cc1Nc1nc(Nc2ccccc2S(=O)(=O)C(C)C)c2[nH]ccc2n1 [ID-7] | – | – | – | – | 544 | ~1080 | ~1170 | ~2960
Cn1ccc2nc(Nc3ccc(N4CCC(O)CC4)cc3)nc(Nc3ccccc3S(C)(=O)=O)c21 [IIC-3] | 8290 | 8990 | 11800 | ~10600 | – | – | – | –
NS(=O)(=O)c1ccc(Nc2nc(NC3CC3)c3[nH]ccc3n2)cc1 [IS-4] | – | – | – | – | > 10000 | > 10000 | > 10000 | > 10000
CC(C)Sc1ccccc1Nc1nc(Nc2ccc(N3CCC(O)CC3)cc2)nc2ccn(C)c12 [IIB-3] | 489 | 917 | 653 | 1040 | – | – | – | –
CCC(C)OC(=O)c1ccccc1Nc1nc(Nc2ccc(N3CCN(C)CC3)cc2OC)nc2cc[nH]c12 (centres unmarked) [IH-1] | – | – | – | – | 1120 | 916 | 1560 | 2070
COC(=O)c1ccccc1Nc1nc(Nc2ccc(N3CCC(N4CCN(C)CC4)CC3)cc2OC)nc2ccn(C)c12 [IIG-2] | ~3880 | 3730 | 4890 | ~7940 | – | – | – | –
COc1cc(C2CCN(C)CC2)c(C)cc1Nc1nc(Nc2ccccc2S(=O)(=O)C(C)C)c2c(ccn2C)n1 [IID-9] | 2240 | ~2880 | 4740 | ~8300 | – | – | – | –
COC(=O)c1cccc(Nc2nc(Nc3ccc(N4CCN(C)CC4)cc3OC)nc3ccn(C)c23)c1 [IIH-1] | 1620 | 1840 | 1750 | 4940 | – | – | – | –
CSc1ccccc1CNc1nc(Nc2ccc(N3CCC(O)CC3)cc2)nc2cc[nH]c12 [IL-3] | – | – | – | – | 3500 | 5020 | 5180 | 5180
CC(C)S(=O)(=O)c1ccccc1CNc1nc(Nc2ccc(N3CCC(O)CC3)cc2)nc2cc[nH]c12 [IO-3] | – | – | – | – | > 10000 | > 10000 | > 10000 | > 10000
CNc1nc(Nc2ccc(S(N)(=O)=O)cc2)nc2cc[nH]c12 [IQ-4] | – | – | – | – | > 10000 | > 10000 | > 10000 | > 10000
COC(=O)c1cccc(Nc2nc(Nc3ccc(N4CCC(N5CCN(C)CC5)CC4)cc3OC)nc3cc[nH]c23)c1 [II-2] | – | – | – | – | 1810 | ~2560 | ~2600 | ~3030
COc1cc(N2CCN(C)CC2)ccc1Nc1nc(NCc2ccccc2SC)c2[nH]ccc2n1 [IL-1] | – | – | – | – | 1320 | 1620 | ~929 | ~2820
COC(=O)c1ccccc1Nc1nc(Nc2ccc(N3CCC(O)CC3)cc2)nc2ccn(C)c12 [IIG-3] | 4260 | 2790 | 3180 | 5040 | – | – | – | –
COc1cc(N2CCN(C)CC2)ccc1Nc1nc(Nc2ccccc2SC)c2[nH]ccc2n1 [IA-1] | – | – | – | – | 1370 | 1800 | 703 | ~2790
